Data published in patent US20230271958A1, “SALT AND CRYSTAL FORM OF DIHYDROPYRIDO[2,3-d]PYRIMIDINE DERIVATE” (NANJING CHIA TAI TIANQING PHARMACEUTICAL CO., LTD., priority 2020, published 2023).

Assay: Solid stability of crystal form A (chemical purity by HPLC)
Assay type: physicochemical
Conditions: for Purity (%) after placement (day 20): exposed to air for 20 d; for Purity (%) before placement (day 0): exposed to air
Protocol: Hot and humid conditions: temperature: 40° C., relative humidity: 75%, crystal form A was exposed to air for 20 d • b. High temperature conditions: temperature: 60° C., crystal form A was exposed to air for 20 d
The chemical purity of crystal form A was measured by HPLC.
Chromatographic column: ACE Excel 5 Super C18 (4.6×150 mm, 5 μm)
Detection wavelength: 230 nm, column temperature: 30° C., flow rate: 1.0 mL/min
Mobile phase: diammonium hydrogen phosphate (1.32 g) was weighed and dissolved in water (1000 mL), the solution was adjusted with phosphoric acid until the pH of the solution was 7.2, filtered, and used as A phase; and acetonitrile was used as B phase.

[1] = condition a: 40° C., relative humidity 75%

## CC(C)NC[C@@H](C(=O)N1CCN(c2ncnc3c2[C@H](C)CC(=O)N3)[C@H]2C[C@H]21)c1ccc(Cl)cc1.O=C(O)/C=C/C(=O)O [crystal form A]
[1]
  Purity (%) after placement (day 20): 99.89%
  Purity (%) before placement (day 0): 99.84%
Condition b: 60° C.
  Purity (%) after placement (day 20): 99.88%
  Purity (%) before placement (day 0): 99.84%
